Legend:
[1] = target: T1, human recombinant serotonin (5-Hydroxytryptamine) 5-HT2C receptor (Homo sapiens, UniProt P28335); assay: Serotonin 5-HT2C radioligand binding ([3H]Mesulergine)
T1 construct: expressed in transfected cells; host or cells: Chinese hamster ovary (CHO-K1) cells
T1 sequence (P28335 33-458): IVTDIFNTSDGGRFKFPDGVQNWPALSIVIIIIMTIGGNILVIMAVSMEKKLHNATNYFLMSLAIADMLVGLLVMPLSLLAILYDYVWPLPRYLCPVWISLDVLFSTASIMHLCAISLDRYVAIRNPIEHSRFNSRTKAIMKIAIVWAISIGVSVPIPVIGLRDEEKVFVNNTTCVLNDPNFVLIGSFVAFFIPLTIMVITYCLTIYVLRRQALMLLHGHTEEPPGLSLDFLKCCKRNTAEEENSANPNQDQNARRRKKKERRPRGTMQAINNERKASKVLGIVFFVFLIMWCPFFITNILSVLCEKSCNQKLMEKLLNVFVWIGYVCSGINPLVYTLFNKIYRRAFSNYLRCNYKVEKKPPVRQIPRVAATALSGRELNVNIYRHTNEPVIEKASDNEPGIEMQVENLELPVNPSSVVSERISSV
Experimental: (1997), 69:1449] in a modified Tris-HCl buffer (50 mM Tris-HCl, pH 7.4, 0.1% Ascorbic Acid, 10 μM Pargyline) was used. Compounds of the invention were incubated with 1 nM [^3H]Mesulergine for 60 min at 25° C. Non-specific binding was estimated in the presence of 1 μM Mianserin. Receptor proteins were filtered and washed, the filters were then counted to determine [^3H]Mesulergine specifically bound. Compounds were screened at 1 μM or lower, using 1% DMSO as vehicle. Biochemical assay results are presented as the percent inhibition of specific binding in Table 4.

[2] = target: human recombinant dopamine D2L receptor (Homo sapiens, UniProt P14416); assay: Dopamine D2L radioligand binding ([3H]Spiperone)
Experimental: To evaluate in radioligand binding assays the activity of compounds of the invention, human recombinant dopamine D2L receptor expressed in Chinese hamster ovary (CHO) cells [Grandy, D. K. et al., Proc. Natl. Acad. Sci. USA. (1989), 86:9762; Hayes, G. et al., Mol. Endocrinol. […] Compounds of the invention were incubated with 0.16 nM [^3H]Spiperone for 120 min at 25° C. Non-specific binding was estimated in the presence of 10 μM Haloperidol. Receptor proteins were filtered and washed, the filters were then counted to determine [^3H]Spiperone specifically bound. Compounds were screened at 1 μM or lower, using 1% DMSO as vehicle. Biochemical assay results are presented as the percent inhibition of specific binding in Table 3.

[3] = target: human recombinant histamine H1 receptor (Homo sapiens, UniProt P35367); assay: Histamine H1 radioligand binding ([3H]Pyrilamine); conditions: read-out: Binding data (Percentage Inhibition) Histamine Binding H1
Experimental: To evaluate in radioligand binding assays the activity of compounds of the invention, human recombinant histamine H1 receptor expressed in Chinese hamster ovary (CHO) cells [De Backer, M. et al., Biochem. Biophys. Res. Comm. (1993), 197(3):1601] in a modified Tris-HCl buffer (50 mM Tris-HCl, pH 7.4, 2 mM MgCl2, 100 mM NaCl, 250 mM Sucrose) was used. Compounds of the invention were incubated with 1.2 nM [^3H]Pyrilamine for 180 min at 25° C. Non-specific binding was estimated in the presence of 1 μM pyrilamine. Receptor proteins were filtered and washed, the filters were then counted to determine [^3H]Pyrilamine specifically bound. Compounds were screened at 1 μM or lower, using 1% DMSO as vehicle. Biochemical assay results are presented as the percent inhibition of specific binding in Table 2.

[4] = target: T2, human recombinant serotonin (5-Hydroxytryptamine) 5-HT5A receptor (Homo sapiens, UniProt P47898); assay: Serotonin 5-HT5A radioligand binding ([3H]LSD); conditions: 0.1 μM ligand concentration
T2 construct: expressed in transfected cells; host or cells: Chinese hamster ovary (CHO-K1) cells
Experimental: (§1) Compounds of the invention were incubated with 1.7 nM [^3H]Lysergic acid diethylamide (LSD) for 60 min at 37° C. […] Receptor proteins were filtered and washed, the filters were then counted to determine [^3H]LSD specifically bound. Compounds were screened at 1 μM or lower, using 1% DMSO as vehicle. Biochemical assay results are presented as the percent inhibition of specific binding in Table 4.

[5] = target: human recombinant serotonin (5-Hydroxytryptamine) 5-HT7 receptor (Homo sapiens, UniProt P34969); assay: Serotonin 5-HT7 radioligand binding ([3H]LSD); conditions: 0.1 μM ligand concentration
Experimental: as §1, with “of” for “of the”, “5.5” for “1.7”, “2 h” for “60 min”, “25°” for “37°”

[6] = target: T3, human recombinant adrenergic α2C receptor (Homo sapiens, UniProt P18825); assay: Adrenergic α2C radioligand binding ([3H]MK-912); conditions: 0.1 μM ligand conc.
T3 construct: expressed in transfected cells; host or cells: insect Sf9 cells
T3 sequence (P18825 1-462): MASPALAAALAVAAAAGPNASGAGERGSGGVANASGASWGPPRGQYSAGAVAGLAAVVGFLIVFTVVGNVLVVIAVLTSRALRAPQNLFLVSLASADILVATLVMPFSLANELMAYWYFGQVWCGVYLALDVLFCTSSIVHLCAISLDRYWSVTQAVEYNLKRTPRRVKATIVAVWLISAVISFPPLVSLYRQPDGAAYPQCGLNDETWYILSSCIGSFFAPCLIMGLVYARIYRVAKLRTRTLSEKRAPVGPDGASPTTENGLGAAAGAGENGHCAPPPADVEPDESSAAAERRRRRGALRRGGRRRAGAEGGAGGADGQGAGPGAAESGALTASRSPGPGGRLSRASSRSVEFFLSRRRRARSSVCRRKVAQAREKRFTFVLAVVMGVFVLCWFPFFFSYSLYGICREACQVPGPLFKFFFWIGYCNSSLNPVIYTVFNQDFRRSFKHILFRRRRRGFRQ
Experimental: To evaluate in radioligand binding assays the activity of compounds of the invention, human recombinant adrenergic α2C receptor expressed in insect Sf9 cells [Uhlen, S. et al., J. Pharmacol. Exp. Ther. 1994), 271:1558] in a modified Tris-HCl buffer (50 mM Tris-HCl, pH 7.4, 12.5 mM MgCl2, 2 mM EDTA) was used. Compounds of the invention were incubated with 1 nM [^3H]MK-912 for 60 min at 25° C. Non-specific binding was estimated in the presence of 10 μM WB-4101. Receptor proteins were filtered and washed, the filters were then counted to determine [^3H]MK-912 specifically bound. Compounds were screened at 1 μM or lower, using 1% DMSO as vehicle. Compounds of the invention were tested in this biochemical assay. Biochemical assay results for representative compounds were presented as the percent inhibition of specific binding in Table 3.

human recombinant histamine H1 receptor, sequence (P35367 whole entry): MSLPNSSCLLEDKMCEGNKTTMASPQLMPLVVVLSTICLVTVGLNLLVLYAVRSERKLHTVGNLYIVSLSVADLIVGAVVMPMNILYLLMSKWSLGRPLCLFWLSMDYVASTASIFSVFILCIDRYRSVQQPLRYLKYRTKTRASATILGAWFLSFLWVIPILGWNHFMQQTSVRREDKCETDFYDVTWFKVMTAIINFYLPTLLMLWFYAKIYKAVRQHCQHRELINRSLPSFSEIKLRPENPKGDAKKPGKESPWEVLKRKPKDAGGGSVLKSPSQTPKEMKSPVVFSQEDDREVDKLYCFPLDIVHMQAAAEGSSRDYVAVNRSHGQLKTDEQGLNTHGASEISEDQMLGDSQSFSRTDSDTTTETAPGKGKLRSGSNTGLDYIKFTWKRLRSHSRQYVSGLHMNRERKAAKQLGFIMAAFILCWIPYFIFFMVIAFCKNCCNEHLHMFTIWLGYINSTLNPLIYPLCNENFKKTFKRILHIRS
T2 sequence (P47898 whole entry): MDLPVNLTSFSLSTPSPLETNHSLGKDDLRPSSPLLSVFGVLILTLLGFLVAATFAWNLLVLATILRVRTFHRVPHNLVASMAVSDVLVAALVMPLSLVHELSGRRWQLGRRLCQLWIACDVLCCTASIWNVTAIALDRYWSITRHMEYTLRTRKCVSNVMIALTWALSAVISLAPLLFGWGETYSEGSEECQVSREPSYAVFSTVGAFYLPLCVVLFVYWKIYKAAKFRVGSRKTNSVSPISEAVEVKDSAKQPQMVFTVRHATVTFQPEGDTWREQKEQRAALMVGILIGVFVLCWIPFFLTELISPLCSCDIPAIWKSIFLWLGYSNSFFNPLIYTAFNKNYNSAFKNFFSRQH
human recombinant dopamine D2L receptor, sequence (P14416 whole entry): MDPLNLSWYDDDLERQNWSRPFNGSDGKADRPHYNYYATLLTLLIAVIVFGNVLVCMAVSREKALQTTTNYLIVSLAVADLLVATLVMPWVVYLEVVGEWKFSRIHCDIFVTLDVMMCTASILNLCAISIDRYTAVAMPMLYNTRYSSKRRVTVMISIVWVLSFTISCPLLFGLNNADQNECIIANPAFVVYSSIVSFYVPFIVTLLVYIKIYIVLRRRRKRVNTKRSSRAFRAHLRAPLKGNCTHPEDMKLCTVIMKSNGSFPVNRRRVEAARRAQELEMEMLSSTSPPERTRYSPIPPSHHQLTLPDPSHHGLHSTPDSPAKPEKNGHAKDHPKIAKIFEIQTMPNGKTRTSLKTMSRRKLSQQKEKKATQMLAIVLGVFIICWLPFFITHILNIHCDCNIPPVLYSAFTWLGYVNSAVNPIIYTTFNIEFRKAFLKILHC
human recombinant serotonin (5-Hydroxytryptamine) 5-HT7 receptor, sequence (P34969 whole entry): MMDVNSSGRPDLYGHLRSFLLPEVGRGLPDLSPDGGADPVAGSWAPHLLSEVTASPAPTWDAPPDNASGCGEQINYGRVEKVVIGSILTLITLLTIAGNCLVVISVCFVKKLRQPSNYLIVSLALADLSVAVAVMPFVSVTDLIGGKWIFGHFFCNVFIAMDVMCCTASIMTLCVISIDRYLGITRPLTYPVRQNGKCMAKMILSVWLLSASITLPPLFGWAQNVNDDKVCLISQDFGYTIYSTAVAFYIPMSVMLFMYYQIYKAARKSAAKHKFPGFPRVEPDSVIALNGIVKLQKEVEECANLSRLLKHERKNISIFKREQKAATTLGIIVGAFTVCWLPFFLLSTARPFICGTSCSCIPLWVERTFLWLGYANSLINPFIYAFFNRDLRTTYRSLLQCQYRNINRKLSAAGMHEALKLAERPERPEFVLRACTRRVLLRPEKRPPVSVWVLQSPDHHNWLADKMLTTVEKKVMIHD

Row | Structure (SMILES) | Percent Inhibition of ligand binding Serotonin 5-HT2C ([1]; 1 μM ligand concentration) [%] | Percent Inhibition of ligand binding Dopamine D2L ([2]; 1 μM ligand conc.) [%] | inhibition at 1 µM [3] [%] | Percent Inhibition of ligand binding Serotonin 5-HT2C ([1]; 0.1 μM ligand concentration) [%] | Percent Inhibition of ligand binding Dopamine D2L ([2]; 0.1 μM ligand conc.) [%] | inhibition at 0.1 µM [3] [%] | Percent Inhibition of ligand binding Serotonin 5-HT5A [4] [%] | Percent Inhibition of ligand binding Serotonin 5-HT7 [5] [%] | Percent Inhibition of ligand binding Adrenergic α2C [6] [%]
1 | Fc1ccc(CCn2c3c(c4cc(Cl)ccc42)C2CCCN2CC3)cc1 (stereo not drawn) [Compound 1, 7-(4-fluorophenethyl)-10-chloro-2,3,5,6,7,11c-hexahydro-1H-indolizino[7,8-b]indole] | 44 | 9 | -2 | – | – | – | – | – | –
2 | Fc1ccc(CCn2c3c(c4cc(Cl)ccc42)CN2CCCC2C3)cc1 (stereo not drawn) [Compound 2, 10-(4-fluorophenethyl)-7-chloro-2,3,5,10,11,11a-hexahydro-1H-indolizino[7,6-b]indole] | 53 | 13 | 9 | – | – | – | – | – | –
3 | C/C(=C\n1c2c(c3cc(C)ccc31)C1CCCN1CC2)c1ccc(C)nc1 (stereo not drawn) [Compound 32, (E)-10-methyl-7-(2-(6-methylpyridin-3-yl)prop-1-enyl)-2,3,5,6,7,11c-hexahydro-1H-indolizino[7,8-b]indole] | – | – | – | 26 | 3 | 1 | 24 | 61 | 45
4 | Cc1cnc2c(c1)c1c(n2CCc2ccc(C)nc2)CCN2CCCC12 (stereo not drawn) [Compound 33, 10-methyl-7-(2-(6-methylpyridin-3-yl)ethyl)-2,3,5,6,7,1c-hexahydro-1H-pyrido[3′,2′:4,5]pyrrolo[2,3-g]indolizine] | – | – | – | 13 | 1 | 73 | 0 | 44 | 4
5 | Cc1ccc(CCn2c3c(c4cccnc42)C2CCCN2CC3)cn1 (stereo not drawn) [Compound 34, 7-(2-(6-methylpyridin-3-yl)ethyl)-2,3,5,6,7,1c-hexahydro-1H-pyrido[3′,2′:4,5]pyrrolo[2,3-g]indolizine] | – | – | – | 7 | 6 | 22 | 6 | 18 | 1
6 | Cc1ccc(CCn2c3c(c4cccnc42)CN2CCCC2C3)cn1 (stereo not drawn) [Compound 35, 11-(2-(6-methylpyridin-3-yl)ethyl)-7,8,9,9a,10,11-hexahydro-5H-pyrido[3′,2′:4,5]pyrrolo[3,2-f]indolizine] | – | – | – | 15 | −3 | 50 | 10 | 6 | 2
7 | Cc1cnc2c(c1)c1c(n2CCc2ccc(C)nc2)CC2CCCN2C1 (stereo not drawn) [Compound 36, 3-methyl-11-(2-(6-methylpyridin-3-yl)ethyl)-7,8,9,9a,10,11-hexahydro-5H-pyrido[3′,2′:4,5]pyrrolo[3,2-f]indolizine] | – | – | – | 19 | −3 | 96 | 25 | 23 | 3
8 | O=C(Cn1c2c(c3cccnc31)CN1CCCC1C2)N1CCCCC1 (stereo not drawn) [Compound 37, 1-(piperidin-1-yl)-2-(8,9,9a,10-tetrahydro-5H-pyrido[3′,2′:4,5]pyrrolo[3,2-f]indolizin-11(7H)-yl)ethanone] | – | – | – | 9 | −5 | 6 | 8 | 3 | 4
9 | O=C(Cn1c2c(c3cccnc31)C1CCCN1CC2)N1CCCCC1 (stereo not drawn) [Compound 38, 1-(piperidin-1-yl)-2-(2,3,5,6-tetrahydro-1H-pyrido[3′,2′:4,5]pyrrolo[2,3-g]indolizin-7(11cH)-yl)ethanone] | – | – | – | 16 | 24 | 5 | 8 | 23 | −6
